Values quoted from earlier work, collected in patent EP4512393A1, “COMBINATION OF SODIUM DICHLOROACETATE AND VALPROIC ACID SALTS FOR THE TREATMENT OF VIRAL AND BACTERIAL INFECTIONS AND INFLAMMATORY DISEASES” (Lietuvos sveikatos mokslu universitetas, priority 2023, dated 2025).

Tested on: leukocyte migration into the peritoneal cavity
Settings: peritonitis-induced male rat model

For `CCCC(CCC)C(=O)O` [VPA, 2-n-propyl-pentanoic acid], the “inhibition of leukocyte migration into the peritoneal cavity” value is listed as 92%.
